pIC50: −log10 of the molar value.
These compounds were tested on P. falciparum 3D7 growth, pLDH absorbance (assay: P. falciparum 3D7 growth inhibition, dose response, strain 3D7 (AID 2305)).
In the case of `O=C(/C=C/c1ccc(Cl)cc1)NCCCCCN1CCCC(C(=O)Nc2ccc(Cl)cc2)C1` (stereo not drawn), the pIC50 was 5.98.
Work on `O=C(/C=C/c1ccc(C(F)(F)F)cc1)NCCCCCN1CCN(C(=O)Nc2ccc(Cl)c(Cl)c2)CC1` yielded a pIC50 of 6.06.
In the case of `O=C(/C=C/c1ccc(Cl)c(Cl)c1)NCCCN1CCC(c2c[nH]c3ccccc23)CC1`, the pIC50 was 6.01.
`CCCCNc1c(C(=O)OCC)c(C)nc2c1[nH]c1ccccc12` gave a pIC50 of 6.17.
Work on `CCCCCCNC[C@@H](O)[C@H](Cc1ccccc1)NC(=O)c1cc(NCC)cc(N2CCCCS2(=O)=O)c1` yielded a pIC50 of 6.00.
`Cn1cnc2nc(NCCc3ccccc3)nc(NCc3cccc4ccccc34)c21` was tested, and the pIC50 was 6.48.
With `Cc1nc2ccc3ccc(CNc4ccc(C(=O)N[C@@H](CCC(=O)O)C(=O)O)cc4)cc3c2c(=O)[nH]1` the pIC50 was 6.74.
For `Cc1nn(-c2cccc(Cl)c2)c2c1C(C(=O)c1ccc3c(c1)OCO3)CC(=O)N2` (stereo not drawn), the pIC50 was 6.43.
`CCCOc1cccc(C(=O)N[C@@H](Cc2ccccc2)[C@H](O)CNCc2cccc(OC)c2)c1` showed a pIC50 of 6.13.
Compound `COc1cccc(OC)c1CN1CCC(N(C)CCCCCCCCN2CCC(OC(=O)Nc3ccccc3-c3ccccc3)CC2)CC1` has a pIC50 of 6.34.
`CCC1(C)N=C(N)N=C(N)N1c1ccccc1` (stereo not drawn) gave a pIC50 of 6.10.
In the case of `NCCCCNc1cc(-c2ccnc(Nc3cccc(Cl)c3)n2)ccn1`, the pIC50 was 6.55.
For `O=C(N1CCN(c2ccc(C(F)(F)F)cc2[N+](=O)[O-])CC1)C(Cl)(Cl)Cl`, the pIC50 was 6.15.
With `COc1cc(-c2cc3cc(Cl)c(Cl)cc3[nH]2)ccc1C(=O)NC1CCN(Cc2ccccc2)CC1` the pIC50 was 6.28.
Work on `Cc1cc(C(=O)Nc2nc(-c3ccccn3)nc3ccsc23)no1` yielded a pIC50 of 6.09.
With `C=CCc1cc(SC)ccc1Oc1ccc(N)cc1` the pIC50 was 6.13.
Compound `CCN(CC)CC(O)c1cc(-c2ccc(OC)cc2)nc2cc(Cl)ccc12` (stereo not drawn) has a pIC50 of 7.15.
`Cc1[nH]c(C)c(-c2ccc(Oc3cccc(C(F)(F)F)c3)cc2)c(=O)c1Br` gave a pIC50 of 8.00.
In the case of `O=C(/C=C/c1ccc(Cl)cc1)NCCCCCN1CCCN(C(=O)Nc2cccc(Cl)c2)CC1`, the pIC50 was 6.00.
`CC(C)[C@H](NC(=O)c1c(CN2CCC(N3CCCCC3)CC2)c(-c2ccccc2)nc2cc(O)ccc12)c1ccccc1` was tested, and the pIC50 was 6.13.
For `CC(=O)N1Cc2ccccc2C1=O`, the pIC50 was 6.28.
`CCN(CC)CCCC(C)Nc1c2ccc(Cl)cc2nc2ccc(OC)cc12` (stereo not drawn) showed a pIC50 of 7.40.
Compound `c1ccc(CNCc2cccc(-c3ccc(-c4nc5ccccc5[nH]4)cc3)c2)cc1` has a pIC50 of 6.09.
In the case of `O=C(CC1CCCC1)N(CC1CCN(Cc2ccc(C(F)(F)F)cc2)CC1)c1ccc(N2CCOCC2)c(F)c1`, the pIC50 was 6.37.
For `O=C(C=Cc1ccc(-c2ccccc2)cc1)N1CCC(CCN2CCC(c3c[nH]c4ccccc34)CC2)CC1`, the pIC50 was 5.95.
For `N#Cc1ccc(Sc2nnc(-c3ccccc3Cl)n2CC2CCCCC2)cc1[N+](=O)[O-]`, the pIC50 was 5.94.
`COc1c(C)cc(I)cc1CNCCCNc1cc(=O)c2ccccc2[nH]1` gave a pIC50 of 5.89.
In the case of `O=C(COc1ccc(Cl)c(Cl)c1)NCCCCCN1CCCN(C(=O)Nc2cc(Cl)cc(Cl)c2)CC1`, the pIC50 was 5.94.
`CCN(CC)c1nc(Nc2cc(C)ccc2C)nc(Nc2ccccc2O)n1` was tested, and the pIC50 was 6.19.
`OCCCCCCNc1nc(NCc2ccccc2-c2ccc(C(F)(F)F)cc2)nc(N2CCNCC2)n1` was tested, and the pIC50 was 5.84.
Compound `Cc1nc(C)c(CC(=O)Nc2ccc(-c3ccc(-c4nc5ccc(C(F)(F)F)cc5[nH]4)s3)cc2)s1` has a pIC50 of 5.99.
Work on `Clc1ccc(-c2ccc(CNCCCN3CCCC3)cc2)cc1` yielded a pIC50 of 5.97.
In the case of `Cc1cc2c(cc1C(F)(F)F)N(C(=O)Nc1cc(C(=O)NC3CCN(Cc4ccccc4)C3)cc(C(F)(F)F)c1)CC2` (stereo not drawn), the pIC50 was 6.47.
For `CCc1cn(C)c2c(N3CCCC3=O)cc(C(=O)N[C@@H](Cc3ccccc3)[C@H](O)CNC(C)(C)c3cccc(OC)c3)cc12`, the pIC50 was 7.40.
Compound `CN1C(=C2SC(=Nc3ccc4ncccc4c3)N(Cc3ccccc3)C2=O)Sc2ccc(Cl)cc21` has a pIC50 of 5.97.
`C#CCNCc1ccc(-c2ccc(-c3nc4ccc(C(F)(F)F)cc4[nH]3)s2)cc1` gave a pIC50 of 6.13.
`Oc1ccccc1CNCC12CC3CC(CC(C3)C1)C2` gave a pIC50 of 6.55.
With `O=C(Nc1cccc(-c2csc(NC(=O)c3ccc4ccccc4c3)n2)c1)c1ccc2ccccc2c1` the pIC50 was 6.15.
For `CN1CCN(S(=O)(=O)c2cccc(Nc3nccc(N(C)c4ccc5c(c4)nc(NC(=O)c4cccs4)n5C)n3)c2)CC1`, the pIC50 was 6.12.
With `Cc1cccc2[nH]c(-c3ccc(-c4cccc(CNCC5CCCO5)c4)cc3)nc12` (stereo not drawn) the pIC50 was 6.15.
In the case of `CC(C)C[C@H](NC(=O)c1cc2cc(OCCN3CCNCC3)ccc2o1)C(=O)NC1CC[C@@H](C)N(C(=O)Nc2ccc(Cl)cc2)CC1=O` (stereo partly drawn), the pIC50 was 6.42.
In the case of `O=C(Nc1cccc(-c2cccc(-c3nc4ccc(C(F)(F)F)cc4[nH]3)c2)c1)Nc1ccc(F)c(F)c1F`, the pIC50 was 6.92.
For `COc1ccc2c(NN=C(C)c3ccccn3)cc(C)nc2c1`, the pIC50 was 6.14.
`CC(C)CCNc1nc(NCc2ccccc2)c2cc(O)ccc2n1` gave a pIC50 of 6.96.
`COc1ccc(C=NNc2cc(C)nc3ccc(OC)cc23)c(OC)c1` was tested, and the pIC50 was 6.11.
For `CN1CCC(NCc2cccc(-c3cnc(NCc4ccccc4)nc3)c2)CC1`, the pIC50 was 6.01.
`Cc1cccc(NC(=O)Nc2cccc(-c3ccc(-c4nc5ccc(C(F)(F)F)cc5[nH]4)cc3)c2)c1` showed a pIC50 of 6.05.
`CC(C)N1CCN(C(CN2CCN(CCCOc3ccc4ccccc4c3)CC2)c2ccc(F)cc2)CC1` (stereo not drawn) gave a pIC50 of 6.24.
`CC(=O)Nc1ccc(OCCN(CC(C)(C)C)c2ccc(C#N)c(C(F)(F)F)c2)c(Cl)c1` showed a pIC50 of 6.31.
`COc1cccc(CNC[C@@H](O)[C@H](Cc2ccccc2)NC(=O)c2cc(NC(C)C)cc(N3CCCCS3(=O)=O)c2)c1` gave a pIC50 of 6.11.
Compound `CNCCc1c(O)ccc2ccccc12` has a pIC50 of 6.10.
In the case of `O=C(Nc1cccc(-c2nn3ncccc3c2-c2ccnc(Nc3ccc(N4CCOCC4)cc3)n2)c1)c1c(F)cccc1F`, the pIC50 was 6.80.
`O=S(=O)(NCCN1CCCC1)c1cccc(-c2ccc(CNC3Cc4ccccc4C3)cc2)c1` was tested, and the pIC50 was 6.18.
`Cc1cccc(CNc2nc(C)cc(NCCC(=O)NCc3cccc(F)c3)n2)c1` was tested, and the pIC50 was 6.07.
With `O=S(=O)(NCCN1CCCC1)c1cccc(-c2ccccc2CNC2Cc3ccccc3C2)c1` the pIC50 was 6.13.
With `Cc1nnnn1-c1ccc(C(=O)N2CCC3(CC2)CN(Cc2ccc(Cl)c(Cl)c2)C(=O)O3)cc1` the pIC50 was 6.74.
`NCCCOc1cnc(-c2ccccc2)c2nc(-c3nonc3N)n(CCc3ccccc3)c12` was tested, and the pIC50 was 5.90.
Compound `CC(C)COc1ccc(Cl)cc1Cc1nc(-c2nc3c(CN4CCN(C)CC4)cccc3[nH]2)cs1` has a pIC50 of 5.88.
`Cc1cc2ncc(C(N)=O)c(Nc3ccc(N4CCOCC4)cc3)c2cc1S(C)(=O)=O` was tested, and the pIC50 was 6.17.
With `COc1ccc(S(=O)(=O)N2CCCc3ccc(Br)cc32)cc1N1CCN(C(=O)C(Cl)(Cl)Cl)CC1` the pIC50 was 6.09.
`COc1ccc2nc3cc(Cl)ccc3c(NCCCCN)c2c1` gave a pIC50 of 6.14.
With `CC(C)(CNCc1ccc(C(F)(F)F)cc1)c1nc(-c2ccc(Cl)c(O)c2)c(-c2ccnc(N)n2)[nH]1` the pIC50 was 6.82.
`COc1ccc2nc(N)nc(C)c2c1` gave a pIC50 of 6.03.
Compound `Cc1cc(C2CCN(CCCCNC(=O)c3ccc(NC(=O)c4ccc(Cl)cc4)cc3)CC2)c(C)cc1OCc1ccccn1` has a pIC50 of 6.10.
Compound `NC(=O)c1cccc(-n2ccc3cc(CNC4Cc5ccccc5C4)ccc32)c1` has a pIC50 of 5.95.
Compound `CS(=O)(=O)CCNCc1cccc(-c2ccc3c(Nc4ccc(Oc5cccnc5)cc4)ccnc3c2)c1` has a pIC50 of 6.85.
Work on `Clc1ccc(-n2cnc3c(Nc4ccc(Oc5ccccc5)cc4)ncnc32)cc1Cl` yielded a pIC50 of 6.12.
`Cc1cc(N[C@@H](CC(C)C)C(=O)NCc2cccs2)nc(NCCc2ccccc2)n1` showed a pIC50 of 5.92.
With `COc1ccccc1CCCN1C(=O)C(c2ccccc2)(c2ccccc2)N=C1N` the pIC50 was 6.57.
`O=C(Nc1ccc(OC2CCN(Cc3ccsc3)C2)c(Cl)c1)c1ccc2ncccc2c1` (stereo not drawn) was tested, and the pIC50 was 6.01.
Compound `COc1ccc2ccc(F)c(CCN3CCC(NCc4cc5c(cn4)OCCO5)CC3)c2n1` has a pIC50 of 6.08.
For `O=c1nc(C=Cc2ccc(Br)cc2)oc2ccccc12`, the pIC50 was 5.98.
`CC1CCCC(Nc2noc(-c3sccc3Br)n2)C1` (stereo not drawn) gave a pIC50 of 6.16.
For `O=C(NCCCCN1CCC(c2ccc3c(c2OC(=O)c2ccc(NC(=O)c4ccc(Cl)cc4)cc2)CCCC3)CC1)c1ccc(NC(=O)c2ccc(Cl)cc2)cc1`, the pIC50 was 6.70.
`CCCCCCOc1ccc(C(N)=NCc2ccccc2)c2c1CCCC2` gave a pIC50 of 5.90.
With `C[C@@H](CC1CCCCC1)NCc1ccccc1O` the pIC50 was 6.03.
In the case of `O=C(C=Cc1ccc(F)cc1)N1CCN(S(=O)(=O)c2ccc(Cl)cc2)CC1`, the pIC50 was 6.20.
For `CCCc1ccc(S(=O)(=O)Nc2ccc3c(c2)CCC3)cc1`, the pIC50 was 6.06.
`COc1cc2nc(N(C)CC3COc4ccccc4O3)nc(N)c2cc1OC` (stereo not drawn) gave a pIC50 of 5.81.
`Cc1cc(CNCCCCCCCNCc2ccc(-c3ccccc3)cc2)ccc1O` gave a pIC50 of 6.31.
Work on `c1ccc(CNc2nc(NCCN3CCCCC3)nc3ccccc23)cc1` yielded a pIC50 of 5.99.
With `CC1CC(NCCCNc2cc(=O)c3ccccc3[nH]2)c2c1cc(Cl)c(Cl)c2Cl` (stereo not drawn) the pIC50 was 6.08.
Compound `COc1ccc(C#Cc2ccc(-c3c(C)[nH]c(C)c(Cl)c3=O)cc2)cc1` has a pIC50 of 7.15.
For `NS(=O)(=O)CCc1cccc(Nc2nccc(-c3c(-c4cccc(NC(=O)c5c(F)cccc5F)c4)nn4ccccc34)n2)c1`, the pIC50 was 7.22.
Work on `Cc1cc(C2CCN(CCCCNC(=O)c3ccc(-c4ccc(C#N)cc4)cc3)CC2)c(C)cc1OCCO` yielded a pIC50 of 6.09.
`O=C(c1ccc([N+](=O)[O-])o1)N1CCN(c2ccccc2)CC1` gave a pIC50 of 7.40.
For `O=C(NCCCCN1CCC(c2ccc3ccccc3c2O)CC1)c1ccc(-c2ccc(Cl)cc2)cc1`, the pIC50 was 6.74.
`Oc1ccccc1CCNCC1CCc2ccccc2C1` (stereo not drawn) was tested, and the pIC50 was 6.16.
For `COc1ccc(CNC2Cc3ccccc3C2)cc1-c1ccc(OC)c(S(=O)(=O)NCCN2CCCC2)c1`, the pIC50 was 6.11.
Work on `N#Cc1cccc(C(=O)Nc2cccc(-c3ccc(CN4CCC(O)CC4)cc3)c2)c1` yielded a pIC50 of 5.89.
With `Cc1cc(C(=O)N(Cc2ccc(-c3ccc(CNCCc4ccc(S(C)(=O)=O)cc4)cn3)cc2)C(C)CN(C)C)ccc1[N+](=O)[O-]` (stereo not drawn) the pIC50 was 6.10.
Work on `Cc1cc(Nc2cccc(Cl)c2)nc2ccc(NC(=O)c3ccc(=O)[nH]c3)cc12` yielded a pIC50 of 6.00.
`CCC(CC)NCc1c(O)ccc2c(CNC(CC)CC)c(O)ccc12` showed a pIC50 of 6.41.
`CC(CN(C)C)C(=O)Nc1ccc(-c2ccc(-c3nc4ccc(F)cc4[nH]3)cc2)cc1` (stereo not drawn) gave a pIC50 of 6.11.
`O=c1cc(NCCCNCc2ccc(C(F)(F)F)s2)[nH]c2ccccc12` showed a pIC50 of 6.70.
Compound `CCNC[C@@H](O)[C@H](Cc1ccccc1)NC(=O)c1cc2c3c(c1)c(CC)cn3CCS(=O)(=O)N2C` has a pIC50 of 6.09.
For `CS(=O)(=O)c1ccc(CNCc2cccc(-c3cccc(-c4nc5ccccc5[nH]4)c3)c2)cc1`, the pIC50 was 6.23.
With `COc1ccc(Cl)cc1N1CCN(CCCNC(=O)c2ccc(-c3nc4cc(Cl)c(C)cc4[nH]3)s2)CC1` the pIC50 was 6.11.

Reference: PubChem BioAssay AID2305 (GlaxoSmithKline (GSK), 2010)
